# Measured values from US11912703B2, “6-azaindole compounds” (BRISTOL-MYERS SQUIBB COMPANY, priority 2017, dated 2024).
# Read-outs that look alike come from different tables or passages of the source.
# Columns and labels:
# human TLR8 = human TLR8 (Homo sapiens (Human), UniProt Q9NR97); experiment: TLR8 inhibition reporter assay (HEK-Blue SEAP);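 note: SEAP driven by IFN-β minimal promoter with five NF-κB and AP-1 sites, compounds tested 0.05 nM to 50 µM, 22 h incubation, inhibition relative to agonist plus DMSO wells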
# Procedure: HEK-Blue™-cells (Invivogen) overexpressing human TLR7, TLR8 or TLR9 receptors were used for screening inhibitors of these receptors using an inducible SEAP (secreted embryonic alkaline phosphatase) reporter gene under the control of the IFN-β minimal promoter fused to five NF-κB and AP-1-binding sites. Briefly, cells are seeded into Greiner 384 well plates (15000 cells per well for TLR7, 20,000 for TLR8 and 25,000 for TLR9) and then treated with test compounds in DMSO to yield a final dose response concentration range of 0.05 nM-50 μM. After a 30 minute compound pre-treatment at room temperature, the cells are then stimulated with a TLR7 ligand (gardiquimod at a final concentration of 7.5 μM), TLR8 ligand (R848 at a final concentration of 15.9 μM) or TLR9 ligand (ODN2006 at a final concentration of 5 nM) to activate NF-κB and AP-1 which induce the production of SEAP. After a 22 hour incubation at 37° C., 500 CO2, SEAP levels are determined with the addition of HEK-Blue™ Detection reagent (Invivogen), a cell culture medium that allows for detection of SEAP, according to manufacturer's specifications.
# human TLR9 = human TLR9 (Homo sapiens (Human), UniProt Q9NR96); experiment: TLR9 inhibition reporter assay (HEK-Blue SEAP);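 note: SEAP driven by IFN-β minimal promoter carrying five NF-κB and AP-1 sites, 22 h at 37 °C, compounds 0.05 nM–50 µM, inhibition scaled between agonist-plus-DMSO and reference-inhibitor wells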
# human TLR7 = human TLR7 (Homo sapiens (Human), UniProt Q9NYK1); experiment: TLR7 inhibition reporter assay (HEK-Blue SEAP); format: cell-based; details: HEK-Blue cells overexpressing human TLR7, gardiquimod 7.5 μM stimulation
# [1] = read-out: TLR8 IC50; HEK-Blue cells overexpressing human TLR8, R848 15.9 μM stimulation, SEAP reporter
# [2] = read-out: TLR9 IC50; HEK-Blue cells overexpressing human TLR9, ODN2006 5 nM stimulation, SEAP reporter
# [3] = read-out: TLR8 IC50; HEK-Blue cells overexpressing human TLR8; R848 15.9 μM stimulation; SEAP reporter
# [4] = read-out: TLR9 IC50; HEK-Blue cells overexpressing human TLR9; ODN2006 5 nM stimulation; SEAP reporter
# human TLR7, sequence (Q9NYK1 27-1049): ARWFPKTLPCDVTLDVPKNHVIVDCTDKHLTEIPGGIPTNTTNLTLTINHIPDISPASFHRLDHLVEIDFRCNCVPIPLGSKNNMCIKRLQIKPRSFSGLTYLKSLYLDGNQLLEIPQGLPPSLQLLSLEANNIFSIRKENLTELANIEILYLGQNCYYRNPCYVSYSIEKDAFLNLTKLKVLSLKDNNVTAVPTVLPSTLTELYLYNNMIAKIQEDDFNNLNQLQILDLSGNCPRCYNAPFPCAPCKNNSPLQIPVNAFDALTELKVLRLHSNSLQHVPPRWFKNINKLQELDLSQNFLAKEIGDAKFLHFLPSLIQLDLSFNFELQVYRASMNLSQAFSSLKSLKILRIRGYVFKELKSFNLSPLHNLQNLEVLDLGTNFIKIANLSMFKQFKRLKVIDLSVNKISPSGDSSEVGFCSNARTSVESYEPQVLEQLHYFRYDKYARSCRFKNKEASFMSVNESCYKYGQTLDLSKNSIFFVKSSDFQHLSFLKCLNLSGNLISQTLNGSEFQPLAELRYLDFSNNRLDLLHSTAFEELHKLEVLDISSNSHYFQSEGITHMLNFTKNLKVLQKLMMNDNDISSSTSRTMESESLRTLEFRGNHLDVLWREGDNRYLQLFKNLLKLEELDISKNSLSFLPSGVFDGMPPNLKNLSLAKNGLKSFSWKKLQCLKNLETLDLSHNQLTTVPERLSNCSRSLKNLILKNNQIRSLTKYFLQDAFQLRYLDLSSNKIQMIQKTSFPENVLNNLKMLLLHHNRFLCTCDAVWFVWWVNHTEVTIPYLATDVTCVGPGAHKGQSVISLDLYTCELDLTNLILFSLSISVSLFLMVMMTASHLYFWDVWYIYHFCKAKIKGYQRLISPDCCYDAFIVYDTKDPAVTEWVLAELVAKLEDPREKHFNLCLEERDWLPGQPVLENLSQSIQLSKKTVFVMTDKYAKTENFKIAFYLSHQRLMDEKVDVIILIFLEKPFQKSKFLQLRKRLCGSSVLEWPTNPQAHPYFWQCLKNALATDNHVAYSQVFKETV
# human TLR8, sequence (Q9NR97 27-1041): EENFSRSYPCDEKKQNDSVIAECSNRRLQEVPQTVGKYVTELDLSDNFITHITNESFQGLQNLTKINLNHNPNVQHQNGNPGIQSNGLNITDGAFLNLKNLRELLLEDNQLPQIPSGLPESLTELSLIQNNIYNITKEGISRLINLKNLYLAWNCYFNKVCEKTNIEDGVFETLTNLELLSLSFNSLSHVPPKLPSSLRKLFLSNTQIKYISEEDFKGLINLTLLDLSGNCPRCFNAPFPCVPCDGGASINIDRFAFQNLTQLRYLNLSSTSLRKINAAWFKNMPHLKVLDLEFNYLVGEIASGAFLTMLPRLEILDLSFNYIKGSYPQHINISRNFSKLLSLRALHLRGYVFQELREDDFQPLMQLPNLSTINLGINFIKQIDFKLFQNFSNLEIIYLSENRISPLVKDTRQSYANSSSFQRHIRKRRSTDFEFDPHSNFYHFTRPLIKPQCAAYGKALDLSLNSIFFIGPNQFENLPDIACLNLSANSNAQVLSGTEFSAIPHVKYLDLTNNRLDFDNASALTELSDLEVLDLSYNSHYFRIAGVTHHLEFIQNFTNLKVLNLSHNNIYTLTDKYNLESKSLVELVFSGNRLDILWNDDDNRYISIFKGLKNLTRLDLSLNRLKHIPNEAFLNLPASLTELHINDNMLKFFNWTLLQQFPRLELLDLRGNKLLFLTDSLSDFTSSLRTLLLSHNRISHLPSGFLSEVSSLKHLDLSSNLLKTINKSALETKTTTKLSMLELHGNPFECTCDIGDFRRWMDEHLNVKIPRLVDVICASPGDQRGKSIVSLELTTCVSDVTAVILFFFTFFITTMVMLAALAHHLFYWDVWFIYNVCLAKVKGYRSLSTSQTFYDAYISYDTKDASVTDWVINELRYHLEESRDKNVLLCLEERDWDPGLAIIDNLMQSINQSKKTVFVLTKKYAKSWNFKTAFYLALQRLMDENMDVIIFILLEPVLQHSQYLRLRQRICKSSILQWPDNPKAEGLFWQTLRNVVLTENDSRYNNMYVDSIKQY
# human TLR9, sequence (Q9NR96 26-1032): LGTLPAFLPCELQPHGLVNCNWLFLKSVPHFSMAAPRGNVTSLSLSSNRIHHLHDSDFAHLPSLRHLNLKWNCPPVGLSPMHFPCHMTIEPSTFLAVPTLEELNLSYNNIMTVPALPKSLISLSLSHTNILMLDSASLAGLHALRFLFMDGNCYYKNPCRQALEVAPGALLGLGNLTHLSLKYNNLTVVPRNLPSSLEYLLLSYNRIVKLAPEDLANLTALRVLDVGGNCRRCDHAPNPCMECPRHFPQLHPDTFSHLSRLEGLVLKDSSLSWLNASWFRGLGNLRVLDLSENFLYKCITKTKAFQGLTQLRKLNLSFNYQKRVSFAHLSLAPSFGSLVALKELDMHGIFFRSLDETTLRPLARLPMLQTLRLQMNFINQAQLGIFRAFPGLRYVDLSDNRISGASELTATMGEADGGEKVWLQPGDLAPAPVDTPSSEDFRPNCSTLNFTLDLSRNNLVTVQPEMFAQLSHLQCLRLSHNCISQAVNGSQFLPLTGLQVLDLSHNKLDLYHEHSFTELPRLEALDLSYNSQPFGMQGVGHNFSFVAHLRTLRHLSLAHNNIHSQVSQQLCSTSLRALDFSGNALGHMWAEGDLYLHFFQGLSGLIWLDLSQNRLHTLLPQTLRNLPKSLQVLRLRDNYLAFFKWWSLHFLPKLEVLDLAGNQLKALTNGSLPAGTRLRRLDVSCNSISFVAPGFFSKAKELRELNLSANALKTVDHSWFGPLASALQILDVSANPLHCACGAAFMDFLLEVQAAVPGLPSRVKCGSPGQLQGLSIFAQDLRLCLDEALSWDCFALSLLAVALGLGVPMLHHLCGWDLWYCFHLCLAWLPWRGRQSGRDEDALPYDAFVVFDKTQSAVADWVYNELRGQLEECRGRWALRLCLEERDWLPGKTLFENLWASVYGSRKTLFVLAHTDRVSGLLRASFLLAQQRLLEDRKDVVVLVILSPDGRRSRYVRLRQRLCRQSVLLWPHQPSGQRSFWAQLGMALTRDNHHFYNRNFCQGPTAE
SMILES,IC50 (human TLR8; [1]) [nM],IC50 (human TLR9; [2]) [nM],IC50 (human TLR7) [nM],IC50 (human TLR8; [3]) [nM],IC50 (human TLR9; [4]) [nM]
"Cc1c(-c2[nH]c3cnc(N4CCN(C5COC5)CC4)c(C)c3c2C(C)C)cn2ncnc2c1C [Example 417, 6-(3-isopropyl-4-methyl-5-(4-(oxetan-3-yl)piperazin-1-yl)-1H-pyrrolo[2,3-c]pyridin-2-yl)-7,8-dimethyl-[1,2,4]triazolo[1,5-a]pyridine]",13,> 50000,16,,
Cc1c(-c2[nH]c3cnc(N4CCN(C5CCOCC5)C[C@H]4C)c(F)c3c2C(C)C)cn2ncnc2c1C [Example 456],,,5.7,1.6,16300
Cc1c(N2CCC(N3CCOCC3)CC2)ncc2[nH]c(-c3cc(C)c4ncnn4c3)c(C(C)C)c12 [Example 282],0.97,1070,1.1,,
COc1cc(-c2[nH]c3cnc(C4CCN(C(=O)CN(C)C)CC4)c(F)c3c2C(C)C)cn2ncnc12 [Example 37],4.4,409,3.3,,
COCCN1CCC(c2ncc3[nH]c(-c4cc(OC)c5ncnn5c4)c(C(C)C)c3c2F)CC1 [Example 21],2.7,3340,2,,
Cc1c(-c2[nH]c3cnc(N4CCN(C5COC5)CC4)c(F)c3c2C(C)C)cn2ncnc2c1C [Example 409],3.4,> 50000,2.5,,
Cc1cc(-c2[nH]c3cnc(C4CCN(C5COC5)CC4)c(F)c3c2C(C)C)cn2ncnc12 [Example 182],11,18800,3.8,,
COc1cc(-c2[nH]c3cnc(C4CCC(N(C)C(C)C)CC4)c(F)c3c2C(C)C)cn2ncnc12 (stereo not drawn) [Example 227],,,1.9,2.6,4320
Cc1c(-c2[nH]c3cnc(C4CCC(NCC(C)(C)C)CC4)c(C)c3c2C(C)C)cn2ncnc2c1C (stereo not drawn) [Example 247],10,718,16,,
Cc1c(-c2[nH]c3cnc(C4CCC(NCC(F)F)CC4)cc3c2C(C)C)cn2ncnc2c1C (stereo not drawn) [Example 336],36,4000,8.8,,
"COc1cc(-c2[nH]c3cnc(N4CC5(CNC5)C4)c(F)c3c2C(C)C)cn2ncnc12 [Example 355, 6-(4-fluoro-3-isopropyl-5-(2,6-diazaspiro[3.3]heptan-2-yl)-1H-pyrrolo[2,3-c]pyridin-2-yl)-8-methoxy-[1,2,4]triazolo[1,5-a]pyridine]",22,5590,33,,
COc1cc(-c2[nH]c3cnc(C4CCC(NC5COC5)CC4)c(F)c3c2C(C)C)cn2ncnc12 (stereo not drawn) [Example 224],,,0.4,0.62,679
COc1cc(-c2[nH]c3cnc(N4CCC(NC5CCOC5)CC4)c(F)c3c2C(C)C)cn2ncnc12 (stereo not drawn) [Example 190],0.22,874,0.77,,
COc1cc(-c2[nH]c3cnc(C4CCC(NCC(C)(C)C)C4)cc3c2C(C)C)cn2ncnc12 (stereo not drawn) [Example 210],6.6,1080,34,,
Cc1c(-c2[nH]c3cnc(C4CCC(N(C)C(C)C)CC4)c(F)c3c2C(C)C)cn2ncnc2c1C (stereo not drawn) [Example 168],4.5,17500,3.6,,
Cc1c(-c2[nH]c3cnc(N4CCC(N5CC6(COC6)C5)CC4)c(F)c3c2C(C)C)cn2ncnc2c1C [Example 111],0.48,3000,1,,
COc1cc(-c2[nH]c3cnc(N4CCC(NCC(N)=O)CC4)cc3c2C(C)C)cn2ncnc12 [Example 345],13,712,11,,
Cc1c(-c2[nH]c3cnc(N4CCC(NCC5(C)COC5)CC4)c(C)c3c2C(C)C)cn2ncnc2c1C [Example 54],0.3,935,0.9,,
COc1cc(-c2[nH]c3cnc(C4CCC(NC5CCOC5)CC4)cc3c2C(C)C)cn2ncnc12 (stereo not drawn) [Example 317],7.1,34,2.1,,
Cc1c(-c2[nH]c3cnc(C4CCC(NCC(C)(C)C)CC4)cc3c2C(C)C)cn2ncnc2c1C (stereo not drawn) [Example 351],5.4,345,11,,
Cc1cc(-c2[nH]c3cnc(N4CCC(NCC(C)(C)O)CC4)c(F)c3c2C(C)C)cn2ncnc12 [Example 258],0.35,6020,0.77,,
CNC(=O)CN1CCN(c2ncc3[nH]c(-c4cc(OC)c5ncnn5c4)c(C(C)C)c3c2F)[C@H](C)C1 [Example 445],25,> 50000,13,,
COc1cc(-c2[nH]c3cnc(N4CCC(NC(C)C)CC4)cc3c2C(C)C)cn2ncnc12 [Example 307],0.85,657,3,,
Cc1cc(-c2[nH]c3cnc(N4CCNCC4)cc3c2C(C)C)cn2ncnc12 [Example 301],> 3120,2680,> 3120,,
Cc1c(-c2[nH]c3cnc(N4CCC(N(C)C(C)C)CC4)c(F)c3c2C(C)C)cn2ncnc2c1C [Example 52],0.42,1860,0.98,,

SMILES,IC50 (human TLR8; [1]) [nM],IC50 (human TLR9; [2]) [nM],IC50 (human TLR7) [nM],IC50 (human TLR8; [3]) [nM],IC50 (human TLR9; [4]) [nM]
COc1cc(-c2[nH]c3cnc(C4CCC(NC5COC5)CC4)c(F)c3c2C(C)C)cn2ncnc12 (stereo not drawn) [Example 223],,,2.7,2.4,1110
COc1cc(-c2[nH]c3cnc(N4CCN(CC(=O)N(C)C)CC4)c(F)c3c2C(C)C)cn2ncnc12 [Example 360],1.5,23000,2.9,,
COc1cc(-c2[nH]c3cnc(N4CCC(NCC5(C)COC5)CC4)cc3c2C(C)C)cn2ncnc12 [Example 322],0.23,1450,2.1,,
COc1cc(-c2[nH]c3cnc(N4CCN(CC(N)=O)CC4)c(C)c3c2C(C)C)cn2ncnc12 [Example 155],5,6310,7.3,,
Cc1c(-c2[nH]c3cnc(C4CCC(NCC(C)(C)O)CC4)c(C)c3c2C(C)C)cn2ncnc2c1C (stereo not drawn) [Example 122],10,400,14,,
COc1cc(-c2[nH]c3cnc(C4CCC(NC5COC5)CC4)c(C)c3c2C(C)C)cn2ncnc12 (stereo not drawn) [Example 243],4.8,430,0.79,,
Cc1cc(-c2[nH]c3cnc(C4CCC(N(C)C(C)C)CC4)c(F)c3c2C(C)C)cn2ncnc12 (stereo not drawn) [Example 108],4,2760,2.1,,
COc1cc(-c2[nH]c3cnc(N4CCC(NC5CCOCC5)CC4)c(C)c3c2C(C)C)cn2ncnc12 [Example 201],0.52,1790,0.49,,
COc1cc(-c2[nH]c3cnc(C4CCN(CC(=O)N(C)C)CC4)c(C)c3c2C(C)C)cn2ncnc12 [Example 24],39,279,9.7,,
COc1cc(-c2[nH]c3cnc(N4CCN(CCS(C)(=O)=O)CC4)c(C)c3c2C(C)C)cn2ncnc12 [Example 186],6.6,26500,12,,
CNCC(=O)N1CCC(c2ncc3[nH]c(-c4cc(OC)c5ncnn5c4)c(C(C)C)c3c2C)CC1 [Example 12],273,866,53,,
CCN1CC2(C1)CN(c1ncc3[nH]c(-c4cc(OC)c5ncnn5c4)c(C(C)C)c3c1F)C2 [Example 379],2.3,3630,4,,
COc1cc(-c2[nH]c3cnc(C4CCN(CC5(C)COC5)CC4)c(F)c3c2C(C)C)cn2ncnc12 [Example 17],1.6,1860,1.3,,
COc1cc(-c2[nH]c3cnc(C4CCC(N5CC6(COC6)C5)C4)cc3c2C(C)C)cn2ncnc12 (stereo not drawn) [Example 209],97,1080,29,,
Cc1c(-c2[nH]c3cnc(C4CCN(C(=O)CN(C)C)CC4)cc3c2C(C)C)cn2ncnc2c1C [Example 36],48,208,19,,
Cc1c(-c2[nH]c3cnc(N4CCN(CC(N)=O)C[C@H]4C)c(F)c3c2C(C)C)cn2ncnc2c1C [Example 464],,,7.3,2.6,44000
COc1cc(-c2[nH]c3cnc(C4CCN(C5COC5)CC4)cc3c2C(C)C)cn2ncnc12 [Example 306],16,786,3.9,,
Cc1cc(-c2[nH]c3cnc(C4CCN(CC(=O)N(C)C)CC4)cc3c2C(C)C)cn2ncnc12 [Example 299],25,356,2.9,,
CNC(=O)CN1CCC(c2cc3c(C(C)C)c(-c4cn5ncnc5c(C)c4C)[nH]c3cn2)CC1 [Example 27],86,477,49,,
COc1cc(-c2[nH]c3cnc(C4CCN(C(=O)CN(C)C)CC4)c(C)c3c2C(C)C)cn2ncnc12 [Example 32],124,279,40,,
COc1cc(-c2[nH]c3cnc(C4CCC(N5CCC5)CC4)c(F)c3c2C(C)C)cn2ncnc12 (stereo not drawn) [Example 75],5.6,447,2.5,,
CCN(C)C1CCC(c2ncc3[nH]c(-c4cn5ncnc5c(C)c4C)c(C(C)C)c3c2C)CC1 (stereo not drawn) [Example 143],33,683,33,,
Cc1c(-c2[nH]c3cnc(C4CCC(NC5CCOC5)CC4)cc3c2C(C)C)cn2ncnc2c1C (stereo not drawn) [Example 327],17,771,7.1,,
Cc1cc(-c2[nH]c3cnc(N4CCC(N(C)C)CC4)c(F)c3c2C(C)C)cn2ncnc12 [Example 256],1.2,15400,1.4,,
